These results are taken from US3960834A, “Method for preparing 3-(methylmercaptol) propylaminobleomycin” (priority 1973, dated 1976).

In series [1] the test system is Mycobacterium smegmatis 607. Briefly: antimicrobial activity against Mycobacterium smegmatis 607. It counts as cell-based.
The next series deals with ICR mouse bearing cancer. As to the method:
Mice of ICR/JCL strain (male 5 weeks old, five for one group) are inoculated with Ehrlich ascites carcinoma cells in a dose of 2 millions/mouse.
LD50 is calculated by Behrens-Karber's method from the group poisoned at high dose levels.

For series [2], the system named is Ehrlich ascites carcinoma cells. The conditions noted are these: for Mean surviving days: intraperitoneally once a day for 10 days, observed up to 50 days; for ED50: Table 3, maximum dose level at which they survive 100 to 200% of the survival days for the control; for LD50 /ED50 = Index: mouse, in vivo, ip.
A short description of a further series: solubility. Format: physicochemical.
In series [3] the test system is Ehrlich ascites carcinoma cells. In words: animal or person. The conditions noted are these: Mus musculus, ip.
The mark [4] stands for this setting: ICR mouse bearing cancer, daily intraperitoneal administration for 10 days.
The mark [5] stands for this setting: Table 3, Behrens-Karber's method, from the group poisoned at high dose levels.

Like-named read-outs stand apart in the source and are kept apart here. Some results are limits rather than exact numbers.

Turning to “3-(S,S-dimethylmercapto)propylaminobleomycin [Bleomycin A2, reference compound]”, the “antimicrobial activity (potency)” value in series [1] is on record as 1000 mcg potency/mg. In addition, the LD50 in the series on ICR mouse bearing cancer (setting [4]) is given as 12.5 mg/kg; in the series with ICR mouse bearing cancer (setting [5]) it was 9.4. Besides, the Mean surviving days was 13.6 days in series [2] (0.19 mg/kg); 15.4 days in series [2] (0.39 mg/kg); 17.2 days in series [2] (0.78 mg/kg); above 33 days in series [2] (1.56 mg/kg); above 36 days in series [2] (3.12 mg/kg); above 28.4 days in series [2] (6.25 mg/kg). Also, the Mean surviving days in series [2] (12.5 mg/kg) is listed as 25 days; in series [2] (25 mg/kg) it was 10.8 days. The same molecule yielded an ED50 in series [2] of 0.78. The “LD50 /ED50 = Index” value in series [2] was 12.

Regarding `CSCCCNC(=O)c1csc(-c2csc(CCNC(=O)[C@@H](NC(=O)[C@@H](C)[C@H](O)[C@@H](C)NC(=O)[C@@H](NC(=O)c3nc([C@H](CC(N)=O)NC[C@H](N)C(N)=O)nc(N)c3C)[C@@H](O[C@@H]3O[C@@H](CO)[C@@H](O)[C@H](O)[C@@H]3O[C@H]3O[C@H](CO)[C@@H](O)[C@H](OC(N)=O)[C@@H]3O)c3cnc[nH]3)[C@@H](C)O)n2)n1` [Demethylbleomycin A2, 3-(methylmercapto)propylaminobleomycin], in series [1], the “antimicrobial activity (potency)” value is 2,458 mcg potency/mg. The LD50 in the series with ICR mouse bearing cancer (setting [4]) turned out to be 22.5 mg/kg; in the series with ICR mouse bearing cancer (setting [5]), 18.0. For the same molecule, the “toxicity compared with bleomycin A2” value in the series with ICR mouse bearing cancer (from LD50, ICR mouse bearing cancer, daily intraperitoneal for 10 days) is “decreased to about half as much”. Also, the “solubility in organic solvents” value in the series “solubility” (ethanol, propanol, butanol, ethyl acetate, ether, acetone, petroleum ether, benzene, and toluene) is “insoluble”. For the same molecule, the “solubility in water and methanol” value in the series “solubility” (water and methanol) was “soluble”. The Mean surviving days in series [2] (0.19 mg/kg) is recorded as 20.2 days; in series [2] (0.39 mg/kg), 24.0 days; in series [2] (0.78 mg/kg), 31.2 days; in series [2] (1.56 mg/kg) it was 28.6 days; in series [2] (3.12 mg/kg), 34.6 days; in series [2] (6.25 mg/kg) it was 49 days. Further, the Mean surviving days is given as 40.5 days in series [2] (12.5 mg/kg) and 29.0 days in series [2] (25 mg/kg). Also, the ED50 in series [2] is reported as 0.78. The “LD50 /ED50 = Index” value in series [2] was 23.

In turn, `CO[C@@]12[C@H](COC(N)=O)C3=C(C(=O)C(C)=C(N)C3=O)N1C[C@@H]1N[C@@H]12` [Mitomycin C] displayed an ED50 in series [3] of 0.39 mg/kg.
